The values below come from US20260199294A1, “PEPTIDE DRUG CONJUGATES” (Oncopeptides Innovation AB, priority 2022, published 2026).

The test system of the data set is MM.1S cells. Description: Cellular retention/efflux: intracellular and extracellular concentrations by LC-MS/MS. Format: in vitro ADME, human. Particulars: MM.1S cells. Here is the method: Methods: MM.1S cells at 2×10^6 cells/mL were seeded at 250 μL per well in a 96-well plate. Cells were incubated in the presence of a test compound for 5, 15, and 60 min before pelleting cells by centrifugation at +4° C. for 5 min. Cell media was immediately harvested to a second plate and stored at −80° C. until further analysis. Pelleted cells were washed once with ice cold PBS before storage at −80° C. until further analysis.
Cells were lysed and protein in the media were precipitated using acetonitrile dimethylformamide, 9:1 containing internal standard. Samples were centrifuged and the supernatant was analyzed with LC-MS/MS (ACQUITY UPLC-Xevo TQ-S micro) to determine compound concentration.
Example compound 1, bendamustine and melphalan were used as test compounds.
Method: Method described in Biological example 3.
Example compounds 1, 2, 3, 4, 6, 7 and 10 were investigated. Intracellular metabolites are formed from all compounds tested. The compound used for cell treatment was metabolised to the ester-hydrolysed compound (here called Metabolite A) and to the amide-hydrolysed compound (called Metabolite B). The example compound structures and the structures of the two metabolites for the respective compounds were as shown in Table 4. The Metabolites B formed under the conditions tested were compounds with structure as Examples 17 and 18: […]

As to `CCOC(=O)[C@H](CC(C)C)NC(=O)[C@@H](N)CCc1nc2cc(N(CCCl)CCCl)ccc2n1C` [Example compound 1, Ethyl (2S)-2-[[(2S)-2-amino-4-[5-[bis(2-chloroethyl)amino]-1-methyl-benzimidazol-2-yl]butanoyl]amino]-4-methyl-pentanoate], the “intracellular hydrolysis / metabolite formation” value is reported as “hydrolysis of Example compound 1 took place inside the cells”.
